Like-named read-outs stand apart in the source and are kept apart here.
Test: Phase 1 pharmacokinetics (liquid chromatography/tandem mass spectrometry)
Assay type: in vivo, human
Set-up: C24h, Mean / C24h, Median: unit not given here
Conditions: for AUC(0-t) / Cmax / Tmax: human, in vivo
Description: In phase 1, full PK sampling was performed on days 1 and 15 of cycle 1 and day 1 of cycle 2. Trough PK samples were drawn prior to dosing on days 8 and 22 of cycle 1 and at 24, 48, and 72 h after dosing on day 25 of cycle 1. A sample was collected before dosing on day 1 of cycles 4, 7, and 10. Pacritinib concentrations were determined using a validated liquid chromatography/tandem mass spectrometry method. An analysis of clinical exposures from the HCl and citrate salts of pacritinib was performed comparing Day 1 PK data from 12 patients who received the HCl salt formulation in the 200 mg cohorts of this study and two other pacritinib studies [NCT00741871 and NCT00745550]) with six patients in the 200 mg cohort of this study who received the citrate salt formulation.

[1] = phase 1, Day 1, 200 mg (HCl and citrate salt cohorts pooled)
[2] = phase 1, Day 15, 200 mg (HCl and citrate salt cohorts pooled)

Structure (SMILES): C1=C/COCc2cc(ccc2OCCN2CCCC2)Nc2nccc(n2)-c2cccc(c2)COC/1 [pacritinib, 11-(2-pyrrolidin-1-yl-ethoxy)-14,19-dioxa-5,7,26-triaza-tetracyclo[19.3.1.1(2,6). 1(8,12)]heptacosa-1(25),2(26),3,5,8,10,12(27),16,21,23-decaene]
- Mean PK profiles, citrate vs HCl salts (200 mg, day 1, 6 patients citrate vs 12 patients HCl): similar
- AUC(0-t) (oral, 100 mg, phase 1, Day 1, 100 mg, read-out: AUC0-24h, Mean): 65.9 µg·h/mL
- AUC(0-t) (oral, 100 mg, phase 1, Day 1, 100 mg, read-out: AUC0-24h, Median): 56 µg·h/mL
- Cmax (oral, 100 mg, phase 1, Day 1, 100 mg, read-out: Cmax, Mean): 3700 ng/mL
- Cmax (oral, 100 mg, phase 1, Day 1, 100 mg, read-out: Cmax, Median): 2910 ng/mL
- Tmax (oral, 100 mg, phase 1, Day 1, 100 mg, read-out: Tmax, Median): 5 h
- AUC(0-t) (oral, 100 mg, phase 1, Day 15, 100 mg, read-out: AUC0-24h, Mean): 120 µg·h/mL
- AUC(0-t) (oral, 100 mg, phase 1, Day 15, 100 mg, read-out: AUC0-24h, Median): 121 µg·h/mL
- Cmax (oral, 100 mg, phase 1, Day 15, 100 mg, read-out: Cmax, Mean): 6360 ng/mL
- Cmax (oral, 100 mg, phase 1, Day 15, 100 mg, read-out: Cmax, Median): 6180 ng/mL
- Tmax (oral, 100 mg, phase 1, Day 15, 100 mg, read-out: Tmax, Median): 3 h
- AUC(0-t) (oral, 150 mg, phase 1, Day 1, 150 mg, read-out: AUC0-24h, Mean): 64.7 µg·h/mL
- AUC(0-t) (oral, 150 mg, phase 1, Day 1, 150 mg, read-out: AUC0-24h, Median): 69.2 µg·h/mL
- Cmax (oral, 150 mg, phase 1, Day 1, 150 mg, read-out: Cmax, Mean): 3720 ng/mL
- Cmax (oral, 150 mg, phase 1, Day 1, 150 mg, read-out: Cmax, Median): 3790 ng/mL
- AUC(0-t) (oral, 150 mg, phase 1, Day 15, 150 mg, read-out: AUC0-24h, Mean): 140 µg·h/mL
- AUC(0-t) (oral, 150 mg, phase 1, Day 15, 150 mg, read-out: AUC0-24h, Median): 114 µg·h/mL
- Cmax (oral, 150 mg, phase 1, Day 15, 150 mg, read-out: Cmax, Mean): 6700 ng/mL
- Cmax (oral, 150 mg, phase 1, Day 15, 150 mg, read-out: Cmax, Median): 5410 ng/mL
- Tmax (oral, 150 mg, phase 1, Day 15, 150 mg, read-out: Tmax, Median): 2.5 h
- AUC(0-t) (oral, 300 mg, phase 1, Day 1, 300 mg, read-out: AUC0-24h, Mean): 87.1 µg·h/mL
- AUC(0-t) (oral, 300 mg, phase 1, Day 1, 300 mg, read-out: AUC0-24h, Median): 98.2 µg·h/mL
- Cmax (oral, 300 mg, phase 1, Day 1, 300 mg, read-out: Cmax, Mean): 5240 ng/mL
- Cmax (oral, 300 mg, phase 1, Day 1, 300 mg, read-out: Cmax, Median): 5830 ng/mL
- AUC(0-t) (oral, 300 mg, phase 1, Day 15, 300 mg, read-out: AUC0-24h, Mean): 133 µg·h/mL
- AUC(0-t) (oral, 300 mg, phase 1, Day 15, 300 mg, read-out: AUC0-24h, Median): 134 µg·h/mL
- Cmax (oral, 300 mg, phase 1, Day 15, 300 mg, read-out: Cmax, Mean): 6410 ng/mL
- Cmax (oral, 300 mg, phase 1, Day 15, 300 mg, read-out: Cmax, Median): 6860 ng/mL
- AUC(0-t) (oral, 400 mg, phase 1, Day 1, 400 mg, read-out: AUC0-24h, Mean): 127 µg·h/mL
- AUC(0-t) (oral, 400 mg, phase 1, Day 1, 400 mg, read-out: AUC0-24h, Median): 118 µg·h/mL
- Cmax (oral, 400 mg, phase 1, Day 1, 400 mg, read-out: Cmax, Mean): 6280 ng/mL
- Cmax (oral, 400 mg, phase 1, Day 1, 400 mg, read-out: Cmax, Median): 5640 ng/mL
- Tmax (oral, 400 mg, phase 1, Day 1, 400 mg, read-out: Tmax, Median): 8 h
- AUC(0-t) (oral, 400 mg, phase 1, Day 15, 400 mg, read-out: AUC0-24h, Mean): 203 µg·h/mL
- AUC(0-t) (oral, 400 mg, phase 1, Day 15, 400 mg, read-out: AUC0-24h, Median): 240 µg·h/mL
- Cmax (oral, 400 mg, phase 1, Day 15, 400 mg, read-out: Cmax, Mean): 9770 ng/mL
- Cmax (oral, 400 mg, phase 1, Day 15, 400 mg, read-out: Cmax, Median): 11700 ng/mL
- AUC(0-t) (oral, 500 mg, phase 1, Day 1, 500 mg, read-out: AUC0-24h, Mean): 141 µg·h/mL
- AUC(0-t) (oral, 500 mg, phase 1, Day 1, 500 mg, read-out: AUC0-24h, Median): 118 µg·h/mL
- Cmax (oral, 500 mg, phase 1, Day 1, 500 mg, read-out: Cmax, Mean): 7050 ng/mL
- Cmax (oral, 500 mg, phase 1, Day 1, 500 mg, read-out: Cmax, Median): 6310 ng/mL
- AUC(0-t) (oral, 500 mg, phase 1, Day 15, 500 mg, read-out: AUC0-24h, Mean): 178 µg·h/mL
- AUC(0-t) (oral, 500 mg, phase 1, Day 15, 500 mg, read-out: AUC0-24h, Median): 161 µg·h/mL
- Cmax (oral, 500 mg, phase 1, Day 15, 500 mg, read-out: Cmax, Mean): 8730 ng/mL
- Cmax (oral, 500 mg, phase 1, Day 15, 500 mg, read-out: Cmax, Median): 7990 ng/mL
- AUC(0-t) (oral, 600 mg, phase 1, Day 1, 600 mg, read-out: AUC0-24h, Mean): 136 µg·h/mL
- AUC(0-t) (oral, 600 mg, phase 1, Day 1, 600 mg, read-out: AUC0-24h, Median): 129 µg·h/mL
- Cmax (oral, 600 mg, phase 1, Day 1, 600 mg, read-out: Cmax, Mean): 8330 ng/mL
- Cmax (oral, 600 mg, phase 1, Day 1, 600 mg, read-out: Cmax, Median): 7880 ng/mL
- Tmax (oral, 600 mg, phase 1, Day 1, 600 mg, read-out: Tmax, Median): 4.5 h
- AUC(0-t) (oral, 600 mg, phase 1, Day 15, 600 mg, read-out: AUC0-24h, Mean): 161 µg·h/mL
- AUC(0-t) (oral, 600 mg, phase 1, Day 15, 600 mg, read-out: AUC0-24h, Median): 161 µg·h/mL
- Cmax (oral, 600 mg, phase 1, Day 15, 600 mg, read-out: Cmax, Mean): 9220 ng/mL
- Cmax (oral, 600 mg, phase 1, Day 15, 600 mg, read-out: Cmax, Median): 8560 ng/mL
- Tmax (oral, phase 1, day 1, 100-600 mg, read-out: Median time to maximum concentration (Tmax), range over dose cohorts): 4 to 8 h
- Tmax (oral, phase 1, day 15, 100-600 mg, read-out: Median time to maximum concentration (Tmax), range over dose cohorts): 2.5 to 5 h
- AUC(0-t) (po, 200 mg, phase 1, Day 1, 200 mg (HCl and citrate salt cohorts pooled), read-out: AUC0-24h, Mean): 93.3 µg·h/mL
- AUC(0-t) (po, 200 mg, phase 1, Day 1, 200 mg (HCl and citrate salt cohorts pooled), read-out: AUC0-24h, Median): 87.3 µg·h/mL
- Cmax (po, 200 mg, phase 1, Day 1, 200 mg (HCl and citrate salt cohorts pooled), read-out: Cmax, Mean): 5000 ng/mL
- Cmax (po, 200 mg, phase 1, Day 1, 200 mg (HCl and citrate salt cohorts pooled), read-out: Cmax, Median): 4570 ng/mL
- Tmax (po, 200 mg, phase 1, Day 1, 200 mg (HCl and citrate salt cohorts pooled), read-out: Tmax, Median): 5 h
- AUC(0-t) (po, 200 mg, phase 1, Day 15, 200 mg (HCl and citrate salt cohorts pooled), read-out: AUC0-24h, Mean): 125 µg·h/mL
- AUC(0-t) (po, 200 mg, phase 1, Day 15, 200 mg (HCl and citrate salt cohorts pooled), read-out: AUC0-24h, Median): 130 µg·h/mL
- Cmax (po, 200 mg, phase 1, Day 15, 200 mg (HCl and citrate salt cohorts pooled), read-out: Cmax, Mean): 6700 ng/mL
- Cmax (po, 200 mg, phase 1, Day 15, 200 mg (HCl and citrate salt cohorts pooled), read-out: Cmax, Median): 6450 ng/mL
- Tmax (po, 200 mg, phase 1, Day 15, 200 mg (HCl and citrate salt cohorts pooled), read-out: Tmax, Median): 5 h
- C24h, Mean (phase 1, Day 1, 100 mg): 2440
- C24h, Median (phase 1, Day 1, 100 mg): 2318
- C24h, Mean (phase 1, Day 1, 150 mg): 3113
- C24h, Median (phase 1, Day 1, 150 mg): 2316
- C24h, Mean [1]: 3921
- C24h, Median [1]: 3026
- C24h, Mean (phase 1, Day 1, 300 mg): 4213
- C24h, Median (phase 1, Day 1, 300 mg): 3528
- C24h, Mean (phase 1, Day 1, 400 mg): 5644
- C24h, Median (phase 1, Day 1, 400 mg): 4725
- C24h, Mean (phase 1, Day 1, 500 mg): 5899
- C24h, Median (phase 1, Day 1, 500 mg): 4417
- C24h, Mean (phase 1, Day 1, 600 mg): 5093
- C24h, Median (phase 1, Day 1, 600 mg): 4136
- C24h, Mean (phase 1, Day 15, 100 mg): 3945
- C24h, Median (phase 1, Day 15, 100 mg): 4322
- C24h, Mean (phase 1, Day 15, 150 mg): 5428
- C24h, Median (phase 1, Day 15, 150 mg): 5026
- C24h, Mean [2]: 4852
- C24h, Median [2]: 4993
- C24h, Mean (phase 1, Day 15, 300 mg): 4965
- C24h, Median (phase 1, Day 15, 300 mg): 4850
- C24h, Mean (phase 1, Day 15, 400 mg): 8429
- C24h, Median (phase 1, Day 15, 400 mg): 10168
- C24h, Mean (phase 1, Day 15, 500 mg): 6550
- C24h, Median (phase 1, Day 15, 500 mg): 5685
- C24h, Mean (phase 1, Day 15, 600 mg): 6439
- C24h, Median (phase 1, Day 15, 600 mg): 5417
- Between-patient coefficient of variation for Cmax and AUC0–24 (phase 1, day 1): 25 to 63%
- Dose proportionality of exposure (Cmax, C24, AUC0–24) (phase 1, day 1): less than dose-proportional
- Between-patient coefficient of variation for Cmax and AUC0–24 (phase 1, day 15): 20–54%
- Dose dependence of exposure (Cmax, C24, AUC0–24) (phase 1, day 15): plateau above the 400 mg dose level

— publication PMC5146859, “Phase 1/2 study of pacritinib, a next generation JAK2/FLT3 inhibitor, in myelofibrosis or other myeloid malignancies” (Journal of Hematology & Oncology, 2016)
